Assay results as given in patent US9944602B2, “Piperidinone herbicides” (E. I. DU PONT DE NEMOURS AND COMPANY, priority 2014, dated 2018).

Experiments:
Assay type in all cases: in vivo
[1] = tested on: ducksalad (Heteranthera limosa); experiment: Test B flooded paddy test ducksalad; conditions: Table B, Flood, scale 0 to 100
Summary of the method: (§1)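 Test pots carrying 2-leaf-stage seedlings were flooded to 3 cm above the soil surface when treated. Compound went directly into the standing water. Plants stayed in the greenhouse at that depth for 13 to 15 d before visual comparison with controls.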

[2] = tested on: barnyardgrass (Echinochloa crus-galli); experiment: Test A preemergence barnyardgrass; conditions: 0 to 100 scale, 0 no effect, 100 complete control
Summary of the method: (§2)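 Plants were grown in a blend of loam soil and sand. For preemergence testing the soil was sprayed directly after seeding, while postemergence testing used seedlings 2–10 cm high at one to two leaves; all treatments were rated visually for injury (0–100) after ~10 d.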

kochia (Kochia scoparia) [3] = experiment: Test A postemergence kochia; conditions: 0 to 100 scale, 0 is no effect, 100 is complete control
Summary of the method: as §2

rice (Oryza sativa) = experiment: Test B flooded paddy test rice; conditions: Table B, Flood, scale 0 to 100
Summary of the method: as §1

[4] = tested on: ryegrass, Italian (Italian ryegrass, Lolium multiflorum); experiment: Test A preemergence ryegrass, Italian; conditions: 0 to 100 scale, 0 no effect, 100 complete control
Summary of the method: as §2

[5] = tested on: sedge, umbrella (small-flower umbrella sedge, Cyperus difformis); experiment: Test B flooded paddy test sedge, umbrella; conditions: Table B, Flood, scale 0 to 100
Summary of the method: as §1

[6] = tested on: wheat (Triticum aestivum); experiment: Test A postemergence wheat; conditions: 0 to 100 scale, 0 is no effect, 100 is complete control
Summary of the method: as §2

[7] = tested on: pigweed (Amaranthus retroflexus); experiment: Test A postemergence pigweed; conditions: 0 to 100 scale, 0 is no effect, 100 is complete control
Summary of the method: as §2

kochia (Kochia scoparia) [8] = experiment: Test A preemergence kochia; conditions: 0 to 100 scale, 0 no effect, 100 complete control
Summary of the method: as §2

corn (Zea mays) = experiment: Test A postemergence corn; conditions: 0 to 100 scale, 0 is no effect, 100 is complete control
Summary of the method: as §2

[9] = tested on: foxtail, giant (giant foxtail, Setaria faberii); experiment: Test A preemergence foxtail, giant; conditions: 0 to 100 scale, 0 no effect, 100 complete control
Summary of the method: as §2

[10] = tested on: barnyardgrass (Echinochloa crus-galli); experiment: Test A postemergence barnyardgrass; conditions: 0 to 100 scale, 0 is no effect, 100 is complete control
Summary of the method: as §2

[11] = tested on: blackgrass (Alopecurus myosuroides); experiment: Test A postemergence blackgrass; conditions: 0 to 100 scale, 0 is no effect, 100 is complete control
Summary of the method: as §2

[12] = tested on: barnyardgrass (Echinochloa crus-galli); experiment: Test B flooded paddy test barnyardgrass; conditions: Table B, Flood, scale 0 to 100
Summary of the method: as §1

[13] = tested on: pigweed (Amaranthus retroflexus); experiment: Test A preemergence pigweed; conditions: 0 to 100 scale, 0 no effect, 100 complete control
Summary of the method: as §2

[14] = tested on: foxtail, giant (giant foxtail, Setaria faberii); experiment: Test A postemergence foxtail, giant; conditions: 0 to 100 scale, 0 is no effect, 100 is complete control
Summary of the method: as §2

[15] = tested on: galium (catchweed bedstraw, Galium aparine); experiment: Test A postemergence galium; conditions: 0 to 100 scale, 0 is no effect, 100 is complete control
Summary of the method: as §2

[16] = tested on: ragweed (common ragweed, Ambrosia elatior); experiment: Test A preemergence ragweed; conditions: 0 to 100 scale, 0 no effect, 100 complete control
Summary of the method: as §2

[17] = tested on: ryegrass, Italian (Italian ryegrass, Lolium multiflorum); experiment: Test A postemergence ryegrass, Italian; conditions: 0 to 100 scale, 0 is no effect, 100 is complete control
Summary of the method: as §2

[18] = tested on: ragweed (common ragweed, Ambrosia elatior); experiment: Test A postemergence ragweed; conditions: 0 to 100 scale, 0 is no effect, 100 is complete control
Summary of the method: as §2

SMILES | Barnyardgrass plant response rating ([2]; 125 g ai/ha) | Barnyardgrass plant response rating ([2]; 500 g ai/ha) | Plant response rating, Kochia (kochia (Kochia scoparia) [3]; 125 g ai/ha) | Plant response rating, Kochia (kochia (Kochia scoparia) [3]; 500 g ai/ha) | Ryegrass, Italian plant response rating ([4]; 125 g ai/ha) | Ryegrass, Italian plant response rating ([4]; 500 g ai/ha) | Plant response rating, Wheat ([6]; 125 g ai/ha) | Plant response rating, Wheat ([6]; 500 g ai/ha) | Plant response rating, Pigweed ([7]; 125 g ai/ha) | Plant response rating, Pigweed ([7]; 500 g ai/ha) | Kochia plant response rating (kochia (Kochia scoparia) [8]; 125 g ai/ha) | Kochia plant response rating (kochia (Kochia scoparia) [8]; 500 g ai/ha) | Plant response rating, Corn (corn (Zea mays); 125 g ai/ha) | Plant response rating, Corn (corn (Zea mays); 500 g ai/ha) | Foxtail, Giant plant response rating ([9]; 125 g ai/ha) | Foxtail, Giant plant response rating ([9]; 500 g ai/ha) | Plant response rating, Barnyardgrass ([10]; 125 g ai/ha) | Plant response rating, Barnyardgrass ([10]; 500 g ai/ha) | Plant response rating, Blackgrass ([11]; 125 g ai/ha) | Plant response rating, Blackgrass ([11]; 500 g ai/ha) | other results
O=C1NCCC(c2ccc(C(F)(F)F)cc2)C1C(=O)Nc1cccc(F)c1Cl (racemic) [Compound 15] | 60 | 80 | 10 | 60 | 0 | 0 | 0 | 0 | 0 | 0 | 0 | 0 | 0 | 0 | 80 | 90 | 60 | 70 | 20 | 50 | Plant response rating ([1]; 500 g ai/ha): 60; Plant response rating (rice (Oryza sativa); 500 g ai/ha): 0; Plant response rating ([5]; 500 g ai/ha): 0; Plant response rating ([12]; 500 g ai/ha): 40; Pigweed plant response rating ([13]; 125 g ai/ha): 0; Pigweed plant response rating ([13]; 500 g ai/ha): 0; Plant response rating, Foxtail, Giant ([14]; 125 g ai/ha): 70; Plant response rating, Foxtail, Giant ([14]; 500 g ai/ha): 80; Plant response rating, Galium ([15]; 125 g ai/ha): 30; Plant response rating, Galium ([15]; 500 g ai/ha): 70; Ragweed plant response rating ([16]; 125 g ai/ha): 0; Ragweed plant response rating ([16]; 500 g ai/ha): 80; Plant response rating, Ryegrass, Italian ([17]; 125 g ai/ha): 0; Plant response rating, Ryegrass, Italian ([17]; 500 g ai/ha): 0; Plant response rating, Ragweed ([18]; 125 g ai/ha): 0; Plant response rating, Ragweed ([18]; 500 g ai/ha): 40
O=C1NCCC(c2cccc(C(F)F)c2)C1C(=O)Nc1ccccc1F (stereo not drawn) [Compound 48] | 40 | 90 | 0 | 0 | 0 | 0 | 0 | 0 | 0 | 0 | 0 | 0 | 0 | 0 | 70 | 90 | 30 | 80 | 0 | 0 | Plant response rating ([1]; 250 g ai/ha): 60; Plant response rating (rice (Oryza sativa); 250 g ai/ha): 15; Plant response rating ([5]; 250 g ai/ha): 0; Plant response rating ([12]; 250 g ai/ha): 20; Pigweed plant response rating ([13]; 125 g ai/ha): 0; Pigweed plant response rating ([13]; 500 g ai/ha): 0; Plant response rating, Foxtail, Giant ([14]; 125 g ai/ha): 0; Plant response rating, Foxtail, Giant ([14]; 500 g ai/ha): 30; Plant response rating, Galium ([15]; 125 g ai/ha): 0; Plant response rating, Galium ([15]; 500 g ai/ha): 0; Ragweed plant response rating ([16]; 125 g ai/ha): 0; Ragweed plant response rating ([16]; 500 g ai/ha): 0; Plant response rating, Ryegrass, Italian ([17]; 125 g ai/ha): 0; Plant response rating, Ryegrass, Italian ([17]; 500 g ai/ha): 0; Plant response rating, Ragweed ([18]; 125 g ai/ha): 0; Plant response rating, Ragweed ([18]; 500 g ai/ha): 0
O=C1NCC[C@@H](c2cccc(C(F)(F)F)c2)[C@@H]1C(=O)Nc1ccc(F)c(F)c1F [Compound 29] | 0 | 20 | 0 | 0 | 0 | 0 | 0 | 0 | 0 | 0 | 0 | 0 | 0 | 0 | 0 | 20 | 0 | 30 | 0 | 0 | Plant response rating ([1]; 250 g ai/ha): 0; Plant response rating (rice (Oryza sativa); 250 g ai/ha): 0; Plant response rating ([5]; 250 g ai/ha): 0; Plant response rating ([12]; 250 g ai/ha): 0; Pigweed plant response rating ([13]; 125 g ai/ha): 0; Pigweed plant response rating ([13]; 500 g ai/ha): 0; Plant response rating, Foxtail, Giant ([14]; 125 g ai/ha): 0; Plant response rating, Foxtail, Giant ([14]; 500 g ai/ha): 0; Plant response rating, Galium ([15]; 125 g ai/ha): 0; Plant response rating, Galium ([15]; 500 g ai/ha): 0; Ragweed plant response rating ([16]; 125 g ai/ha): 0; Ragweed plant response rating ([16]; 500 g ai/ha): 0; Plant response rating, Ryegrass, Italian ([17]; 125 g ai/ha): 0; Plant response rating, Ryegrass, Italian ([17]; 500 g ai/ha): 0; Plant response rating, Ragweed ([18]; 125 g ai/ha): 0; Plant response rating, Ragweed ([18]; 500 g ai/ha): 0
O=C(Nc1ccccc1C(F)(F)F)C1C(=O)N(C2CC2)CCC1c1ccc(F)cc1 (stereo not drawn) [Compound 50] | 0 | 0 | 0 | 0 | 0 | 0 | 0 | 0 | 0 | 0 | 0 | 0 | 0 | 0 | 0 | 40 | 0 | 0 | 0 | 0 | Plant response rating ([1]; 250 g ai/ha): 0; Plant response rating (rice (Oryza sativa); 250 g ai/ha): 0; Plant response rating ([5]; 250 g ai/ha): 0; Plant response rating ([12]; 250 g ai/ha): 0; Pigweed plant response rating ([13]; 125 g ai/ha): 0; Pigweed plant response rating ([13]; 500 g ai/ha): 0; Plant response rating, Foxtail, Giant ([14]; 125 g ai/ha): 0; Plant response rating, Foxtail, Giant ([14]; 500 g ai/ha): 0; Plant response rating, Galium ([15]; 125 g ai/ha): 0; Plant response rating, Galium ([15]; 500 g ai/ha): 0; Ragweed plant response rating ([16]; 125 g ai/ha): 0; Ragweed plant response rating ([16]; 500 g ai/ha): 0; Plant response rating, Ryegrass, Italian ([17]; 125 g ai/ha): 0; Plant response rating, Ryegrass, Italian ([17]; 500 g ai/ha): 0; Plant response rating, Ragweed ([18]; 125 g ai/ha): 0; Plant response rating, Ragweed ([18]; 500 g ai/ha): 0
Cc1c(F)cccc1NC(=O)C1C(=O)NCCC1c1cccc(C(F)(F)F)c1 (racemic) [Compound 26] | 30 | 90 | 0 | 0 | 0 | 50 | 0 | 20 | 0 | 0 | 0 | 0 | 20 | 40 | 60 | 90 | 30 | 80 | 0 | 40 | Plant response rating ([1]; 500 g ai/ha): 50; Plant response rating (rice (Oryza sativa); 500 g ai/ha): 0; Plant response rating ([5]; 500 g ai/ha): 0; Plant response rating ([12]; 500 g ai/ha): 40; Pigweed plant response rating ([13]; 125 g ai/ha): 0; Pigweed plant response rating ([13]; 500 g ai/ha): 0; Plant response rating, Foxtail, Giant ([14]; 125 g ai/ha): 30; Plant response rating, Foxtail, Giant ([14]; 500 g ai/ha): 90; Plant response rating, Galium ([15]; 125 g ai/ha): 0; Plant response rating, Galium ([15]; 500 g ai/ha): 0; Ragweed plant response rating ([16]; 125 g ai/ha): 0; Ragweed plant response rating ([16]; 500 g ai/ha): 0; Plant response rating, Ryegrass, Italian ([17]; 125 g ai/ha): 20; Plant response rating, Ryegrass, Italian ([17]; 500 g ai/ha): 20; Plant response rating, Ragweed ([18]; 125 g ai/ha): 0; Plant response rating, Ragweed ([18]; 500 g ai/ha): 0
